Measurements published in patent publication US20100056565A1, “Heterocyclic Derivatives as M3 Muscarinic Receptors” (priority 2007, published 2010).
Counter-ions that a name gives are not always drawn.

Molecular target: T1, Recombinant human M3 receptor (Homo sapiens, UniProt P20309)
T1 construct: expressed in transfected cells; host or cells: CHO-K1 cells (membranes)
Test: biochemical
Format: binding
Details: SPA format; read-out: M3 Ki (SPA format)
Description: Recombinant human M3 receptor was expressed in CHO-K1 cells. Cell membranes were prepared and binding of [3H]-N-methyl scopolamine ([3H]-NMS) and compounds was assessed by a scintillation proximity assay (SPA). The incubation time was 16 hours at room temperature in the presence of 1% (v/v) DMSO. The assay was performed in white 96 well clear-bottomed NBS plates (Corning). Prior to the assay, the CHO cell membranes containing M3 receptor were coated onto SPA WGA (Wheat germ agglutinin) beads (GE Healthcare). Non specific binding was determined in the presence of 1 μM Atropine.
Radioactivity was measured on a Microbeta scintillation counter (PerkinElmer) using a 3H protocol with a 2 minutes per well read time. […] Concentration dependent inhibition of [3H]-NMS binding by compounds was expressed as pIC50.

T1 sequence (P20309 whole entry): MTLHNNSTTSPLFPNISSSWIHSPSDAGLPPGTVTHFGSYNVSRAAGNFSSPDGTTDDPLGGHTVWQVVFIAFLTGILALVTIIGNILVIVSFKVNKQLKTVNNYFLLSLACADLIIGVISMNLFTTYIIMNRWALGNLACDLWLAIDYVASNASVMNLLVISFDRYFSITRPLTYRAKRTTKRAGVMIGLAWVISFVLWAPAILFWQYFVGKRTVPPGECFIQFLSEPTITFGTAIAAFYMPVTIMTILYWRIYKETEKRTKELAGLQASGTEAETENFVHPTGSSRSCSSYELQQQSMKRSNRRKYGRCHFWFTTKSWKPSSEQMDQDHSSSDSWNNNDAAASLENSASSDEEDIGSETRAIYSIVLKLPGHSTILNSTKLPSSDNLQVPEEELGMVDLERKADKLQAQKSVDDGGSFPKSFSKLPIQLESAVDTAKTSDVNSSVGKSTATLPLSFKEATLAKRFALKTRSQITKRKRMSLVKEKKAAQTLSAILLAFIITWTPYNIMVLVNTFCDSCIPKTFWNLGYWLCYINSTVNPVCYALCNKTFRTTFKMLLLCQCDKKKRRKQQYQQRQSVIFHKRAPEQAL

Compared with C=CCOCC1C[N+]2(Cc3cnc([C@](O)(c4ccccc4)C4CCCCC4)o3)CCC1CC2 (single isomer, unassigned) [Example 90, formate], O[C@](c1ccccc1)(c1ncc(C[N+]23CCC(CC2)[C@H](COc2ccccc2)C3)o1)C1CCCCC1 [Example 24, (S)-1-[2-((R)—Cyclohexyl-hydroxy-phenyl-methyl)-oxazol-5-ylmethyl]-3-phenoxymethyl-1-azonia-bicyclo[2.2.2]octane; bromide] is lower in Ki: 5 to 20 nM for the first, < 5 nM for the second. The second binds more tightly here.

O[C@](c1ccccc1)(c1nnc(C[N+]23CCC(CC2)[C@H](CSc2ccccc2)C3)o1)C1CCCCC1 [Example 121, (S)-1-[5-((R)—Cyclohexyl-hydroxy-phenyl-methyl)-[1,3,4]oxadiazol-2-ylmethyl]-3-phenylsulfanylmethyl-1-azonia-bicyclo[2.2.2]octane; bromide] and O[C@](c1ccccc1)(c1ncc(C[N+]23CCC(CC2)[C@H](CSc2ccccc2)C3)o1)C1CCCCC1 [Example 43, (S)-1-[2-((R)—Cyclohexyl-hydroxy-phenyl-methyl)-oxazol-5-ylmethyl]-3-phenylsulfanylmethyl-1-azonia-bicyclo[2.2.2]octane; bromide] cannot be ordered by Ki: < 5 nM for the first, < 5 nM for the second.

OC(c1ccccc1)(c1ccccc1)c1ncc(C[N+]23CCC(CC2)[C@@H](Oc2cccc(Cl)c2)C3)o1 [Example 62, (R)-3-(3-Chloro-phenoxy)-1-[2-(hydroxy-diphenyl-methyl)-oxazol-5-ylmethyl]-1-azonia-bicyclo[2.2.2]octane; bromide] and OC(c1ccccc1)(c1ccccc1)c1ncc(C[N+]23CCC(CC2)[C@@H](Oc2ccc(F)c(Cl)c2)C3)o1 [Example 76, (R)-3-(3-chloro-4-fluoro-phenoxy)-1-[2-(hydroxy-diphenyl-methyl)-oxazol-5-ylmethyl]-1-azonia-bicyclo[2.2.2]octane; bromide] cannot be ordered by Ki: < 5 nM for the first, < 5 nM for the second.

OC(c1ccccc1)(c1ccccc1)c1noc(C[N+]23CCC(CC2)[C@@H](Oc2cccc(Cl)c2)C3)n1 [Example 117, (R)-3-(3-Chloro-phenoxy)-1-[3-(hydroxy-diphenyl-methyl)-[1,2,4]oxadiazol-5-ylmethyl]-1-azonia-bicyclo[2.2.2]octane; chloride] and OC(c1ccccc1)(c1ccccc1)c1noc(C[N+]23CCC(CC2)[C@@H](Oc2cccs2)C3)n1 [Example 116, (R)-1-[3-(Hydroxy-diphenyl-methyl)-[1,2,4]oxadiazol-5-ylmethyl]-3-(thiophen-2-yloxy)-1-azonia-bicyclo[2.2.2]octane; chloride] cannot be ordered by Ki: < 5 nM for the first, < 5 nM for the second.

OC(c1ccccc1)(c1cc(C[N+]23CCC(CC2)[C@@H](OCc2ccccc2)C3)on1)C1CCCCC1 (single isomer, unassigned) [Example 31, formate] and OC(c1ccccc1)(c1ncc(C[N+]23CCC(CC2)[C@@H](OCc2ccccc2)C3)s1)C1CCCCC1 (stereo partly drawn) [Example 29, (R)-3-Benzyloxy-1-[2-(cyclohexyl-hydroxy-phenyl-methyl)-thiazol-5-ylmethyl]-1-azonia-bicyclo[2.2.2]octane; bromide] cannot be ordered by Ki: < 5 nM for the first, < 5 nM for the second.

OC(c1ccccc1)(c1ccccc1)c1ncc(C[N+]23CCC(CC2)[C@@H](Oc2ccc(Cl)c(Cl)c2)C3)o1 [Example 78, (R)-3-(3,4-dichloro-phenoxy)-1-[2-(hydroxy-diphenyl-methyl)-oxazol-5-ylmethyl]-1-azonia-bicyclo[2.2.2]octane; bromide] and OC(c1ccccc1)(c1ccccc1)c1ncc(C[N+]23CCC(CC2)[C@@H](Oc2ccc4c(c2)OCO4)C3)o1 [Example 79, (R)-3-(Benzo[1,3]dioxal-5-yloxy)-1-[2-(hydroxy-diphenyl-methyl)-oxazol-5-ylmethyl]-1-azonia-bicyclo[2.2.2]octane; bromide] cannot be ordered by Ki: < 5 nM for the first, < 5 nM for the second.

First: O[C@](c1ccccc1)(c1ncc(C[N+]23CCC(CC2)C(Sc2ccccc2)C3)o1)C1CCCCC1 (stereo partly drawn) [Example 69, 1-[2-(R)-cyclohexyl-hydroxy-phenyl-methyl)-oxazol-5-ylmethyl]-3-phenylsulfanyl-1-azonia-bicyclo[2.2.2]octane; formate]
Second: O[C@](c1ccccc1)(c1ncc(C[N+]23CCC(CC2)[C@H](Oc2ccccc2)C3)o1)C1CCCCC1 [Example 8, (S)-1-[2-((R)—Cyclohexyl-hydroxy-phenyl-methyl)-oxazol-5-ylmethyl]-3-phenoxy-1-azonia-bicyclo[2.2.2]octane; bromide]
The Ki of the first is lower: < 5 nM for the first, 5 to 20 nM for the second. The first binds more tightly here.

OC(c1ccccc1)(c1noc(C[N+]23CCC(CC2)C(CSc2cccc(F)c2)C3)n1)C1CCCCC1 (single isomer, unassigned) [Example 133] and OC(c1ccccc1)(c1cc(C[N+]23CCC(CC2)[C@@H](Oc2cccc(F)c2)C3)on1)C1CCCCC1 (single isomer, unassigned) [Example 101] cannot be ordered by Ki: < 5 nM for the first, < 5 nM for the second.

OC(c1ccccc1)(c1ccccc1)c1ncc(C[N+]23CCC(CC2)[C@@H](Sc2cccc(F)c2)C3)o1 [Example 98, (R)-3-(3-Fluoro-phenylsulfanyl)-1-[2-(hydroxy-diphenyl-methyl)-oxazol-5-ylmethyl]-1-azonia-bicyclo[2.2.2]octane; bromide] and OC(c1ccccc1)(c1ccccc1)c1ncc(C[N+]23CCC(CC2)[C@@H](OCc2ccccc2)C3)o1 [Example 27, (R)-3-Benzyloxy-1-[2-(hydroxy-diphenyl-methyl)-oxazol-5-ylmethyl]-1-azonia-bicyclo[2.2.2]octane; bromide] cannot be ordered by Ki: < 5 nM for the first, < 5 nM for the second.

O[C@@](c1ccccc1)(c1ncc(C[N+]23CCC(CC2)CC3)o1)C1CCCCC1 [Example 5, 1-[2-((S))-Cyclohexyl-hydroxy-phenyl-methyl)-oxazol-5-ylmethyl]-1-azonia-bicyclo[2.2.2]octane bromide] and O[C@](c1ccccc1)(c1ncc(C[N+]23CCC(CC2)[C@@H](Oc2ccccc2)C3)o1)C1CCCCC1 [Example 9, (R)-[2-((R)—Cyclohexyl-hydroxy-phenyl-methyl)-oxazol-5-ylmethyl]-3-phenoxy-1-azonia-bicyclo[2.2.2]octane; bromide] cannot be ordered by Ki: < 5 nM for the first, < 5 nM for the second.

O[C@](c1ccccc1)(c1ncc(C[N+]23CCC(CC2)C(COc2ccc(F)cc2)C3)o1)C1CCCCC1 (single isomer, unassigned) [Example 87] and O[C@](c1ccccc1)(c1ncc(C[N+]23CCC(CC2)[C@@H](Oc2ccc(Cl)cc2)C3)o1)C1CCCCC1 [Example 64, (R)-3-(4-Chloro-phenoxy)-1-[2-((R)-cyclohexyl-hydroxy-phenyl-methyl)-oxazol-5-ylmethyl]-1-azonia-bicyclo[2.2.2]octane; bromide] cannot be ordered by Ki: < 5 nM for the first, < 5 nM for the second.

OC(c1ccccc1)(c1ccccc1)c1noc(C[N+]23CCC(CC2)[C@H](COc2ccccc2)C3)n1 [Example 93, (S)-1-[3-(Hydroxy-diphenyl-methyl)-[1,2,4]oxadiazol-5-ylmethyl]-3-phenoxymethyl-1-azonia-bicyclo[2.2.2]octane; chloride] and OC(c1ccccc1)(c1ccccc1)c1noc(C[N+]23CCC(CC2)[C@@H](OCc2ccc(F)cc2)C3)n1 [Example 141, (R)-3-(4-Fluoro-benzyloxy)-1-[3-(hydroxy-diphenyl-methyl)-[1,2,4]oxadiazol-5-ylmethyl]-1-azonia-bicyclo[2.2.2]octane; chloride] cannot be ordered by Ki: < 5 nM for the first, < 5 nM for the second.

O[C@](c1ccccc1)(c1ncc(C[N+]23CCC(CC2)[C@@H](OCc2ccc(Cl)cc2)C3)o1)C1CCCCC1 [Example 23, (R)-3-(4-Chloro-benzyloxy)-1-[2-((R)-cyclohexyl-hydroxy-phenyl-methyl)-oxazol-5-ylmethyl]-1-azonia-bicyclo[2.2.2]octane; bromide] and O[C@](c1ccccc1)(c1ncc(C[N+]23CCC(CC2)[C@@H](OCc2ccc(Cl)c(Cl)c2)C3)o1)C1CCCC1 [Example 45, (R)-1-[2-((R)-cyclopentyl-hydroxy-phenyl-methyl)-oxazol-5-ylmethyl]-3-(3,4-dichloro-benzyloxy)-1-azonia-bicyclo[2.2.2]octane; formate] cannot be ordered by Ki: < 5 nM for the first, < 5 nM for the second.

Cc1ccc(O[C@H]2C[N+]3(Cc4cnc([C@](O)(c5ccccc5)C5CCCCC5)o4)CCC2CC3)cc1Cl [Example 60, (R)-3-(3-Chloro-4-methyl-phenoxy)-1-[2-((R)-cyclohexyl-hydroxy-phenyl-methyl)-oxazol-5-ylmethyl]-1-azonia-bicyclo[2.2.2]octane; bromide] and O[C@](c1ccccc1)(c1ncc(C[N+]23CCC(CC2)[C@@H](CSc2ccc(Cl)cc2)C3)o1)C1CCCCC1 [Example 107, (R)-3-(4-Chloro-phenylsulfanylmethyl)-1-[2-(R)cyclohexyl-hydroxy-phenyl-methyl)-oxazol-5-ylmethyl]-1-azonia-bicyclo[2.2.2]octane; bromide] cannot be ordered by Ki: < 5 nM for the first, < 5 nM for the second.

OC(c1ccccc1)(c1ccccc1)c1noc(C[N+]23CCC(CC2)[C@@H](Oc2ccc4c(c2)OCO4)C3)n1 [Example 135, (R)-3-(Benzo[1,3]dioxol-5-yloxy)-1-[3-hydroxy-diphenyl-methyl)-[1,2,4]oxadiazol-5-ylmethyl]-1-azonia-bicyclo[2.2.2]octane; chloride] and OC(c1ccccc1)(c1ncc(C[N+]23CCC(CC2)[C@@H](OCc2ccccc2)C3)o1)C1CCC1 (single isomer, unassigned) [Example 50, formate] cannot be ordered by Ki: < 5 nM for the first, < 5 nM for the second.

In the case of O[C@](c1ccccc1)(c1ncc(C[N+]23CCC(COCc4ccccc4)(CC2)CC3)o1)C1CCCCC1 [Example 47, 4-Benzyloxymethyl-1-[2-((R)-cyclohexyl-hydroxy-phenyl-methyl)-oxazol-5-ylmethyl]-1-azonia-bicyclo[2.2.2]octane; bromide], the Ki is reported as > 20 nM.
